Data: patent US10980866B2, “Alpha-1 anti-trypsin for treating liver diseases” (Hadasit Medical Research Services and Development Ltd., priority 2014, dated 2021)
Entries after “also recorded” stand apart in the source; their conditions may differ.

Key:
[1] = molecular target: 1-AZT, a misfolded but functionally active mutant of α1-antitrypsin (Homo sapiens, UniProt P01009, E366K); settings: model cell culture system; cited from earlier work
[2] = system: ConA-induced hepatitis mouse model; experiment: Concanavalin A-induced hepatitis model, liver histology score (H&E); type: in vivo, mice (C57BL/6); settings: 15 hours following ConA; for Infiltrating leukocytes (%) / Lymphocyte adhesion (%) / Necrotic lesions (%): histological score, mean ± SD, AAT 0.35 mg/mouse IP, Dexamethasone 0.35 mg/mouse
Description: (§1) Animals—Male C57BL/6 mice (11-12 weeks old) were obtained from Harlan Laboratories (Jerusalem, Israel) and were maintained in the Animal Core of the Hadassah-Hebrew University Medical School. The mice received standard laboratory food and water ad libitum and were housed in a 12-hour light/dark cycle. All animal experiments were performed according to the guidelines and with the approval of the Hebrew University-Hadassah Institutional Committee for the Care and Use of Laboratory Animals.
(§2) Concanavalin A-induced hepatitis model—Concanavalin A (ConA, MP Biomedicals, USA) was dissolved in a solution consisting of 50 mM Tris pH 7, 150 mM NaCl, and 4 mM CaCl2 and injected into the tail vein at a dose of 500 μg/mouse (15 mg/kg) in 250 μl. Mice were sacrificed 15 hours following ConA injection. Mice (n=5-6 mice per group) were administered orally or intraperitoneally (IP), as indicated, DDW (control); Dexamethasone (0.35 mg/mouse, control); or alpha-1 anti-trypsin (AAT, Sigma A-9024) at a dose of 0.2, 0.35, 1.0 or 2.0 mg per mouse, 2 hours prior ConA treatment.
Histology—Mice were sacrificed at the indicated times and their livers were harvested. Paraffin-embedded liver sections were prepared from and sliced into 4-5 μm-thick sections and stained with hematoxylin-eosin (H&E). The sections were scored according to the extent of liver damage using a previously described method^13, 14 with the following parameters: lymphocyte adhesion to hepatic and portal veins and sinusoids, the number of infiltrating leukocytes into the liver parenchyma, and the number of necrotic lesions (all per 10× high-power field).

[3] = system: APAP-mediated liver damage mouse model; experiment: Acetaminophen-mediated hepatotoxicity model, serum liver enzymes; type: in vivo, mice (C57BL/6); settings: 2 hours following APAP, 24 hours following APAP, vs control (DDW)
Description: as §1
Acetaminophen-mediated hepatotoxicity model—Acetaminophen (APAP)-mediated hepatotoxicity was induced in mice via oral administration of 4 mg APAP (Tiptipot, CST). Mice (n=5 mice per group) were administered IP DDW (control) or AAT at a dose of 0.25 or 0.5 mg per mouse, 2 hours following administration of APAP
(§3) Assessment of Liver toxicity—Serum was obtained from individual mice at the indicated times and the levels of aspartate aminotransferase (AST) and alanine aminotransferase (ALT) were determined using a standard automated analyzer.

[4] = system: ConA-induced hepatitis mouse model; experiment: Concanavalin A-induced hepatitis model, serum liver enzymes (ALT, AST); type: in vivo, mice (C57BL/6)
Description: as §1, §2, §3

[5] = system: ConA-induced hepatitis mouse model; experiment: Concanavalin A-induced hepatitis model, serum IFN-γ by ELISA; type: in vivo, mice (C57BL/6); settings: 15 hours following ConA
Description: as §1, §2
Cytokine measurement—Serum IFN-γ levels were measured at the indicated times in each animal using a commercially available ELISA kit (Quantikine, R&D Systems, MN, USA) according to manufacturer's instructions.

[6] = system: high fat diet (HFD) mouse model; experiment: High fat diet (HFD) with or without methionine choline deficient diet (MCD) fatty liver model; type: in vivo, mice (C57Bl); settings: Example 3
Description: The effect of AAT on fatty liver disease is assessed by determining liver toxicity in a high fat diet (HFD) with or without methionine choline deficient diet (MCD) mouse model.
Blood is taken from the tail vein at the indicated time points and analyzed for:
Mice are sacrificed 14 weeks following beginning of treatment and analyzed for: • Weight • Epididymal fat weight (eq to visceral fat in humans) • MRI—to look at steatosis • ALT, AST • Serum for cytokines-what cytokines: IL2, 6, 4, 5, 12, IFN (gamma), TNF and TGF. IL-10, il-4, il-13, mcp1, • Adipokine—adiponectin which is anti-inflammatory adipokine and visfalatin • CBC including eosinophils • FACS for subsets of T cells • Assessment of eotaxin levels in the liver and in the adipose tissue by mRNA • Collect serum for Lipidomics to be conducted by OWL in Spain • Collect serum for mRNA of lymphocytes, to be performed in the USA by Ilumina sequencing machines • Liver fat quantification • Liver biopsy followed by histological evaluation: • 1. H&E staining • 2. Fat staining (IHC): Oil-R-O (frozen sections) • X2 non stained slides (paraffin embedded) • Snap freeze −80, ×3 samples (from each animal). • Assessment of fibrosis based on staining

[7] = AAT orally administered, 2 hours prior ConA, 15 hours following ConA

Chain of 1-AZT, a misfolded but functionally active mutant of α1-antitrypsin (P01009 25-418 E366K): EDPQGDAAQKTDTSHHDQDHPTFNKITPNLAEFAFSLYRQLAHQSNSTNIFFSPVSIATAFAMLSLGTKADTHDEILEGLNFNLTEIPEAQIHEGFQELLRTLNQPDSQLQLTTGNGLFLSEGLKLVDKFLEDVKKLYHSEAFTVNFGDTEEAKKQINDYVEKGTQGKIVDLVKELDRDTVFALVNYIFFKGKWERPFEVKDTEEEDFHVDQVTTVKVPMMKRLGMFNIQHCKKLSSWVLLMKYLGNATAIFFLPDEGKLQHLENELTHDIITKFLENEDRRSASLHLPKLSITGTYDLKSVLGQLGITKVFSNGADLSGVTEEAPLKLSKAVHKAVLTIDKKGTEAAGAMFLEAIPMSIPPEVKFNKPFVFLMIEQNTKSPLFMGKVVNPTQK

Molecule | secretion of 1-AZT [1] | Infiltrating leukocytes (%) [2] [%] | Lymphocyte adhesion (%) [2] [%] | Necrotic lesions (%) [2] [%] | serum levels of the AST liver enzyme ([3]; AAT 0.25 mg per mouse IP) | serum levels of the AST liver enzyme ([3]; AAT 0.5 mg per mouse IP) | serum levels of the ALT liver enzyme ([4]; AAT 0.35 mg per mouse IP, 2 hours prior ConA, 15 hours following ConA, p<0.005) | mice developing severe disease (severe hepatitis, serum ALT more than 1000 IU) ([4]; AAT 0.35 mg per mouse, compared to 100% in control (DDW) group, p<0.005) [%] | serum levels of the ALT liver enzyme ([4]; AAT 1 mg per mouse IP, 2 hours prior ConA, 15 hours following ConA, p<0.005) | ALT serum levels ([4]; AAT 2 mg per mouse IP, 2 hours prior ConA, 15 hours following ConA) | AST levels ([4]; AAT IP, 2 hours prior ConA, 15 hours following ConA (FIG. 2)) | number of mice developing severe disease (serum ALT more than 1000 IU) ([4]; AAT at all doses tested) | ALT levels [4, 7] | AST levels [4, 7] | overall effect on the ConA-induced hepatitis model ([4]; IP administration of AAT) | serum IFNγ levels ([5]; AAT 1.0 mg per mouse IP, p<0.005) | serum IFNγ levels ([5]; AAT high dose 2.0 mg per mouse) | serum IFNγ levels ([5]; AAT low dose 0.35 mg per mouse) | number of infiltrating leukocytes into the liver parenchyma (in words) ([2]; AAT 0.35 mg per mouse IP) | symptoms of fatty liver disease [6]
O=C(O)CCCc1ccccc1 [PBA, 4-phenylbutyric acid] | marked increase |  |  |  |  |  |  |  |  |  |  |  |  |  |  |  |  |  |  | 
C[C@@H]1C[C@H]2[C@@H]3CCC4=CC(=O)C=C[C@]4(C)[C@@]3(F)[C@@H](O)C[C@]2(C)[C@@]1(O)C(=O)CO [Dexamethasone, reference compound] |  | 0.58 ± 2.5 | 0.58 ± 2.5 | 0 |  |  |  |  |  |  |  |  |  |  |  |  |  |  |  | 
alpha-1 anti-trypsin [AAT] |  | 2.45 ± 8.33 | 2.8 ± 11.89 | 1 ± 1.67 | decrease | decrease | Statistically significant reduction | 50 | Statistically significant reduction | no effect | corresponded to the ALT levels | reduced the number of mice developing severe disease | no effect | no effect | dose-dependent beneficial effect | significant reduction | no significant effect | no significant effect | significant improvement; also recorded: reduced leukocyte infiltration | ameliorated symptoms of fatty liver disease
